Measured values: publication PMC10620030, “New Organotin (IV) Compounds Derived from Dehydroacetic Acid and Thiosemicarbazides: Synthesis, Rational Design, Cytotoxic Evaluation, and Molecular Docking Simulation” (Bioinorganic Chemistry and Applications, 2023)
Entries after “also recorded” stand apart in the source; their conditions may differ.

Assays:
[1] = test system: COS-7 (African green monkey kidney fibroblast) normal cell line; test: sulforhodamine B (SRB) cytotoxicity assay on normal cell line COS-7; type: cell-based; conditions: for IC50: normal cell line, SRB assay, mean ± SE of three or four assays; for Non-Cytotoxic concentration on normal cell line COS-7: nondetectable effect on cell proliferation
Method: (§1) The compounds were screened in vitro against two cancer cell lines, MCF-7 and MDA-MB-231 (human mammary adenocarcinoma), and the normal cell line Cos-7 (African green monkey kidney fibroblast). The MCF-7 and MDA-MB231 cell lines were cultured in RPMI-1640 medium, and Cos-7 was cultured in DMEM (Dulbecco's Modified Eagle's Medium) and supplemented with 10% of fetal bovine serum, 2 mM L-glutamine, 10000 units/ml penicillin G sodium, 10000 μg/ml streptomycin sulfate, 25 μg amphotericin B (Gibco), and 1% of nonessential amino acids (Gibco). The cell lines were maintained at 37°C in a humidified atmosphere with 5% CO2. The viability of the cells used in the experiments exceeded 95%, as determined with trypan blue.
(§2) The human tumor cytotoxicity was assessed using the protein-binding dye sulforhodamine B (SRB) in a microculture assay to measure the cell growth as described by. The human tumors and normal cells were treated with the complexes. The cells were removed from the tissue culture flask by treatment with trypsin and diluted with fresh media from the cell suspension to 100 μl containing 5000–10000 cells per well. The cells were then pipetted into 96 microliter plates (Costar) and incubated at 37°C for 24 h in a 5% CO2 atmosphere. Subsequently, 100 μl of a solution of the corresponding organotin complex at different concentrations was added to each well. The cultures were exposed to the compounds for 48 h. After the incubation period, the cells were fixed to the plastic substratum by the addition of 50 μl of cold trichloroacetic acid (50% aqueous).
(§3) The plates were incubated at 4°C for one hour, washed with tap water, and air-dried. The addition of […] stained trichloroacetic acid-fixed cells. The free SRB was removed by washing with 1% aqueous acetic acid, the plates were air-dried, and the dyed was solubilized by adding ten mM unbuffered Tris base (100 μl). The plates were placed on a shaker for 10 min, and the absorption was measured at 515 nm using an ELISA plate reader (Bio-Tex Instruments).

[2] = test system: MCF-7 (human mammary adenocarcinoma) cell line; test: sulforhodamine B (SRB) cytotoxicity assay on MCF-7; type: cell-based; conditions: mean ± SE of three or four assays, incubation 72 h, 48 h exposure
Method: as §1
as §2, with “The cultures were exposed to the compounds for 48 h.” left out
as §3

[3] = test system: MDA-MB-231 (human mammary adenocarcinoma) cell line; test: sulforhodamine B (SRB) cytotoxicity assay on MDA-MB-231; type: cell-based; conditions: mean ± SE of three or four assays, incubation 72 h, 48 h exposure
Method: as §1
as §2, with “The cultures were exposed to the compounds for 48 h.” left out
as §3

MDA-MB-231 cell line = test: morphological changes, Giemsa stain light microscopy, MDA-MB-231; type: cell-based, human; conditions: 48 h treatment
Method: (§4) To evaluate the morphological alterations induced by organotin(IV) complexes, MCF-7 and MDA-MB231 cell lines were cultured on a tissue culture flask with or without different treatments for 48 h. After incubation, cells were washed two times with PBS, fixed with methanol 100%, and stained with Wright-Giemsa (Sigma-Aldrich, WG32-1L). The culture flasks were examined under an Olympus IX71 Inverted Fluorescence Phase Contrast Microscope. The images were recorded with a Nikon Coolpix 4300 digital camera using the 20x objectives and analyzed by ImageJ software.

[4] = stability in DMSO-d6 by 1H NMR; type: physicochemical; conditions: DMSO-d6 solution, up to 72 h
Method: The stability of the complexes in biological media was tested to evaluate their cytotoxicity. The compounds were dissolved in a DMSO-Tris-HCl buffer (3 : 7 v/v) over a 72 h period, and the UV-Vis spectra were recorded at 0 and 72 h. ^1H NMR spectra in DMSO-d6 of complexes 1a, 1d, 2a, 2d, 3a, and 3d were also acquired at 0, 24, 56, and 72 h.

MCF-7 cell line = test: morphological changes, Giemsa stain light microscopy, MCF-7; type: cell-based, human; conditions: 48 h treatment
Method: as §4

| SMILES | IC50 [1] [µM] | IC50 [2] [µM] | IC50 [3] [µM] | Non-Cytotoxic concentration on normal cell line COS-7 [1] [µM] | morphological alterations MDA-MB-231 (MDA-MB-231 cell line) | stability by 1H NMR [4] | morphological alterations MCF-7 (MCF-7 cell line) |
| --- | --- | --- | --- | --- | --- | --- | --- |
| N.N.[Cl][Pt][Cl] [Cisplatin, reference compound] | 7.17 ± 0.6 | 5.3 ± 0.5 | 27.7 | – | – | – | – |
| CCC[CH2][Sn]1([CH2]CCC)[O]c2cc(C)oc(=O)c2C(C)=NN=C(N)[S]1 [Compound 1a, 4-Amino-2,2-dibutyl-7,10-dimethylpyrane[3,4-h]-1,3,5,6,2-oxathiadiazastannonin-8-one] | 0.49 ± 0.03 | 0.38 ± 0.03 | 0.12 ± 0.01 | 0.02 | Cell density decreased | good stability | – |
| CCCCCCC[CH2][Sn]1([CH2]CCCCCCC)[O]c2cc(C)oc(=O)c2C(C)=NN=C(N)[S]1 [Compound 1b, 4-Amino-2,2-dioctyl-7,10-dimethylpyrane-[3,4-h]-1,3,5,6,2-oxathiadiazastannonin-8-one] | 12.2 ± 0.3 | 8.65 ± 0.7 | 11.1 ± 1.5 | 0.2 | – | – | – |
| CC1=NN=C(N)[S][Sn]([c]2ccccc2)([c]2ccccc2)[O]c2cc(C)oc(=O)c21 [Compound 1c, 4-Amino-2,2-diphenyl-7,10-dimethylpyrane[3,4-h]-1,3,5,6,2-oxathiadiazastannonin-8-one] | 0.68 ± 0.05 | 0.611 ± 0.02 | 0.17 ± 0.01 | 0.02 | Cell density decreased | – | – |
| CC1=NN=C(N)[S][Sn]([CH]2CCCCC2)([CH]2CCCCC2)[O]c2cc(C)oc(=O)c21 [Compound 1d, 4-Amino-2,2-dicyclohexyl-7,10-dimethylpyrane[3,4-h]-1,3,5,6,2-oxathiadiazastannonin-8-one] | 0.18 ± 0.006 | 0.203 ± 0.008 | 0.119 ± 0.003 | 0.01 | – | good stability | – |
| CC1=NN=C(N)[S][Sn]([CH2][Si](C)(C)C)([CH2][Si](C)(C)C)[O]c2cc(C)oc(=O)c21 [Compound 1e, 4-Amino-2,2-bis(trimethylsilyl)methyl-7,10-dimethylpyrane[3,4-h]-1,3,5,6,2-oxathiadiazastannonin-8-one] | 0.14 ± 0.01 | 0.18 ± 0.005 | 0.042 ± 0.008 | 0.01 | – | – | – |
| CCC[CH2][Sn]1([CH2]CCC)[O]c2cc(C)oc(=O)c2C(C)=NN=C(CN)[S]1 [Compound 2a, 2,2-Dibutyl-7,10-dimethyl-4-(aminomethyl) Pyrane[3,4-h]-1,3,5,6,2-oxathiadiazastannonin-8-one] | 0.62 ± 0.06 | 0.21 ± 0.04 | 0.31 ± 0.02 | 0.01 | – | good stability | – |
| CCCCCCC[CH2][Sn]1([CH2]CCCCCCC)[O]c2cc(C)oc(=O)c2C(C)=NN=C(NC)[S]1 [Compound 2b, 2,2-Dioctyl-7,10-dimethyl-4-(aminomethyl) Pyrane[3,4-h]-1,3,5,6,2-oxathiadiazastannonin-8-one] | 11.6 ± 0.8 | 1.39 ± 0.03 | 3.28 ± 0.08 | 0.2 | – | – | Cell density decreased |
| CC1=NN=C(CN)[S][Sn]([c]2ccccc2)([c]2ccccc2)[O]c2cc(C)oc(=O)c21 [Compound 2c, 2,2-Diphenyl-7,10-dimethyl-4-(aminomethyl) Pyrane[3,4-h]-1,3,5,6,2-oxathiadiazastannonin-8-one] | 1.15 ± 0.1 | 1.08 ± 0.01 | 1.02 ± 0.03 | 0.02 | – | – | – |
| CC1=NN=C(CN)[S][Sn]([CH]2CCCCC2)([CH]2CCCCC2)[O]c2cc(C)oc(=O)c21 [Compound 2d, 2,2-Dicyclohexyl-7,10-dimethyl-4-(aminomethyl) Pyrane[3,4-h]-1,3,5,6,2-oxathiadiazastannonin-8-one] | 0.28 ± 0.01 | 0.2 ± 0.002 | 0.087 ± 0.2 | 0.01 | – | good stability | – |
| CC1=NN=C(CN)[S][Sn]([CH2][Si](C)(C)C)([CH2][Si](C)(C)C)[O]c2cc(C)oc(=O)c21 [Compound 2e, 2,2-Bis(trimethylsilyl)methyl-7,10-dimethyl-4-(aminomethyl) Pyrane[3,4-h]-1,3,5,6,2-oxathiadiazastannonin-8-one] | 0.29 ± 0.03 | 0.15 ± 0.02 | 0.12 ± 0.008 | 0.01 | – | – | cytoplasm vacuolization |
| CCC[CH2][Sn]1([CH2]CCC)[O]c2cc(C)oc(=O)c2C(C)=NN=C(Nc2ccccc2)[S]1 [Compound 3a, 2,2-Dibutyl-7,10-dimethyl-4-(aminophenyl) Pyrane[3,4-h]-1,3,5,6,2-oxathiadiazastannonin-8-one] | 0.34 ± 0.01 | 0.21 ± 0.009 | 0.1 ± 0.01 | 0.02 | – | good stability | – |
| CCCCCCC[CH2][Sn]1([CH2]CCCCCCC)[O]c2cc(C)oc(=O)c2C(C)=NN=C(Nc2ccccc2)[S]1 [Compound 3b, 2,2-Dioctyl-7,10-dimethyl-4-(aminophenyl) Pyrane[3,4-h]-1,3,5,6,2-oxathiadiazastannonin-8-one] | 1.6 ± 0.2 | 0.73 ± 0.1 | 0.54 ± 0.08 | 0.01 | – | – | – |
| CC1=NN=C(Nc2ccccc2)[S][Sn]([c]2ccccc2)([c]2ccccc2)[O]c2cc(C)oc(=O)c21 [Compound 3c, 2,2-Diphenyl-7,10-dimethyl-4-(aminophenyl) Pyrane[3,4-h]-1,3,5,6,2-oxathiadiazastannonin-8-one] | 0.25 ± 0.006 | 0.16 ± 0.01 | 0.49 ± 0.002 | 0.01 | – | – | – |
| CC1=NN=C(Nc2ccccc2)[S][Sn]([CH]2CCCCC2)([CH]2CCCCC2)[O]c2cc(C)oc(=O)c21 [Compound 3d, 2,2-Dicyclohexyl-7,10-dimethyl-4-(aminophenyl) Pyrane[3,4-h]-1,3,5,6,2-oxathiadiazastannonin-8-one] | 0.16 ± 0.02 | 0.16 ± 0.006 | 0.07 ± 0.005 | 0.01 | chromatin condensation | – | – |
| CC1=NN=C(Nc2ccccc2)[S][Sn]([CH2][Si](C)(C)C)([CH2][Si](C)(C)C)[O]c2cc(C)oc(=O)c21 [Compound 3e, 2,2-Bis(trimethylsilyl)methyl-7,10-dimethyl-4-(aminophenyl) Pyrane[3,4-h]-1,3,5,6,2-oxathiadiazastannonin-8-one] | 0.25 ± 0.01 | 0.04 ± 0.002 | 0.14 ± 0.003 | 0.01 | cytoplasm vacuolization | – | Cell density decreased; also recorded: presence of nonadherent cells; also recorded: chromatin condensation and pyknotic nuclei |
